Measured values reported in publication PMC12067444, “Synthesis and Pharmacological Characterization of Novel Peripheral Cannabinoid-1 Receptor Blockers Based on a Tricyclic Scaffold” (Journal of Medicinal Chemistry, 2025).
Read-outs that look alike come from different tables or passages of the source.

Key:
[1] = target: T1, mouse CB1R (Mus musculus, UniProt P47746); assay: Radioligand competition displacement binding, [3H]CP-55,940, mouse brain membranes; conditions: [3H]CP-55,940 displacement, mouse brain membranes; read-out: CB1R mKi
T1 construct: crude membranes from mouse brain; from tissue; host or cells: mouse brain cortex (without cerebellum) membranes, C57Bl/6Jhsd mice
T1 sequence (P47746 whole entry): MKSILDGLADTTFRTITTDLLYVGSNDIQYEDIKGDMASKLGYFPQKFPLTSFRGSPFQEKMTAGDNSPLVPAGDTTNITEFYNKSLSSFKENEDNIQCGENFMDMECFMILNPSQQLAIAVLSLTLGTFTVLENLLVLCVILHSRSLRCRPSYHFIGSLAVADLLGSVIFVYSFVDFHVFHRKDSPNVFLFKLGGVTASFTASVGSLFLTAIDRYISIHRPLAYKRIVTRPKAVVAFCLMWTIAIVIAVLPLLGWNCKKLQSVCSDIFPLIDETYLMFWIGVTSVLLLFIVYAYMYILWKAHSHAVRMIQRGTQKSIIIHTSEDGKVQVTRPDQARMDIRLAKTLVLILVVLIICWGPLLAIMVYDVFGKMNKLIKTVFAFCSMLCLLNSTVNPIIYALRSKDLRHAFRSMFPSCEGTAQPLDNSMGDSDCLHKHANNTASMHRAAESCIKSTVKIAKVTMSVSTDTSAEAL
Procedure: (§1) BNS compounds’ binding to CB1R and CB2R was assessed in competition displacement assays using [^3H]CP-55,940 as the radioligand and crude membranes from mouse brain or human cells overexpressing the CB1R or CB2R. All data were in triplicates with Ki values determined from three independent experiments. See SI for a detailed procedure.
Supplementary Experimental Methods
Brain membrane preparation for CB1R b i nd i ng . The mouse cortex, excluding the cerebellum, was dissected from 6-week-old C57Bl/6Jhsd mice (Harlan, Israel). The tissue was homogenized in 4 mL Buffer 1 (320 mM sucrose, 2 mM EDTA, 5 m M MgCl 2) using a glass-Teflon homogenizer and Hei-T ORQUE 200 (Heidolph; Cat# 17-012- 002- 25 -1) homogenizer set to 132 rpm. After homogenization, the mixture was centrifuged at 1,600 × g for 10 min at four °C, and the resulting supernatant was kept on ice. The pellet (P1) was discarded, and the remaining supernatant was subje cted to additional rounds of resuspension in 4 mL Buffer 1 followed by centrifugations, repeating this process three times. The pellets obtained from these centrifugations were discarded, and the three supernatant fractions were combined and subjected to higher-speed centrifugation at 39,000 × g for 15 min at f ou r °C. […] This resuspended pellet ( P 2 ) was incubated at 37 °C for 10 min and then centrifuged at 23, 000 × g for 10 min at 4°C.
After centrifugation, the pellet (P2) was resuspended in 5 mL Buffer 2 and further incubated at 30 °C for 40 min. Following this incubation, the suspension was centrifuged at 11,000 × g for 15 min at 4 °C. The pellet (P2) was resuspended in 2 mL Buffer 3 containing 50 mM TRIS HCl pH 7.4, 1 mM EDTA, and 3 mM MgCl 2. T h e protein concentration of the final suspension was determined using the BCA assay.
Subsequently, the suspension was diluted to a final concentration of 2 mg/mL in Buffer 3, aliquoted on ice, and stored at - 80 °C for further use.
(§2) CB1R and CB2R binding. Binding to the CB1R/CB2R was asse ss ed using competition displacement as says with [ 3H] CP -55,940 as the radioligand. Purified membranes from the mouse brain were utilized for CB1R assessment (as described above). Purified […]
membranes from cells overexpressing human CB2R ( Char les River CAT # A618) w e r e employed for CB2R evaluation.
For mouse CB1R binding assays, the novel compounds were dissolved in dimethyl sulfoxide (DMSO) to reach a final concentration of 10 mM. Each compound was then diluted in Buffer 3 (as described above) supplemented with 0.14% BSA, resulting in concentrations ranging from 10^-4 M to 10^-10 M. Triplicates of 100 µL of each concentration were dispensed into siliconized glass tubes. At the same time, 100 µL of Buffer 3 with 0.14% BSA was dispensed into three tubes as blanks. CB1R b r a i n membranes (20 µg) were added to each tube and diluted with 800 µL Buffer 3 with 0.14% BSA. Subsequently, 5 nM of [ 3H] CP -55,940 (100 µL) was added to each tube.
The tubes were sealed with parafilm and incubated with shaking (120 rpm) in a water bath at 30 °C for 1 hour. Following incubation, 2 mL of cold Buffer 4 (50 mM TRIS HCl pH 7.4, 1 mg/mL BSA) was added to each tube.
To harvest the content of each tube, a Brandel M-24R Vacuum Harvester was employed, with a wet WHATMAN GF/B filter paper (Fired) (one membrane for 12 tubes) placed in the harvester after being washed twice with Buffer 4. The filter membrane in the harvester absorbed the full content of each tube. Then, the filter membrane was wash ed six times with Buffer 4. Each filter -glass membrane tube wa s excised and transferred to a 20 mL glass tube co ntaining a 5 mL ULTIMA GOLD scintillation cocktail. […]

[2] = target: T2, human CB1R (Homo sapiens, UniProt P21554); assay: Radioligand competition displacement binding, [3H]CP-55,940, membranes with human CB1R; conditions: for IC50: human CB1R, read-out: CB1R hIC50
T2 construct: purchased PerkinElmer RBHCB1M400UA
T2 sequence (P21554 whole entry): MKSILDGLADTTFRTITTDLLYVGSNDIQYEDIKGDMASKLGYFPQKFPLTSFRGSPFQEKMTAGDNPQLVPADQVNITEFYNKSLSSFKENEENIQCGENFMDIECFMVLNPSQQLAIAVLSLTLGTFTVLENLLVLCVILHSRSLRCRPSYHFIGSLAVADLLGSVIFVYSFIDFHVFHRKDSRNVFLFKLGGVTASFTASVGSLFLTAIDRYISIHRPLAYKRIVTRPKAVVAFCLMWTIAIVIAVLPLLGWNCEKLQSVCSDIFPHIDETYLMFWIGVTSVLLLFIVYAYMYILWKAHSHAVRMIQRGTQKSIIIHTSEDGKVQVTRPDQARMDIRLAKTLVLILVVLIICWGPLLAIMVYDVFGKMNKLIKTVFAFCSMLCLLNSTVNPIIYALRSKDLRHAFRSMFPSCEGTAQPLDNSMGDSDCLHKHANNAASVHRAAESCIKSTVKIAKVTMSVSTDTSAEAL
Procedure: as §1, with “procedure. […]” for “procedure.”
(§3) Radioligand binding assays were performed to asse ss the binding affinity of the different compounds to hCB1R (RBHCB1M4 00UA; Per kinElmer) or hCB 2R
(§4) (RBXCB2 M400UA; PerkinElmer). Competition displacement as says w ere employed, […]
(§5) utilizing [3H] C P -55,940 as the radioligand and crude membranes from humans for CB1 R or CB2 R. T he compounds were tested at various concentrations (eight points with a five-fold serial dilution starting at two m M) , and their ability to displace [3H] CP - 55, 940 was evaluated. Upon completion of the binding assays, the reaction mixture was filtered through GF/C plates, followed by four washes with cold wash buffer. After drying for one hour, 50 μL of Perkin Elmer Microscint 20 cocktail was added to the filter plate wells, and the bound [3H] C P -55,940 radioligand was measured using a β counter. All data points were duplicated, and Ki values were determined from two independent experiments using GraphPad Prism 7.02 analysis software, extracted through nonlinear regression analysis. […]

[3] = target: T3, human CB2R (Homo sapiens, UniProt P34972); assay: Radioligand competition displacement binding, [3H]CP-55,940, membranes with human CB2R; conditions: [3H]CP-55,940 displacement, read-out: CB2R hKi
T3 construct: purchased PerkinElmer; Charles River RBXCB2M400UA; A618
T3 sequence (P34972 whole entry): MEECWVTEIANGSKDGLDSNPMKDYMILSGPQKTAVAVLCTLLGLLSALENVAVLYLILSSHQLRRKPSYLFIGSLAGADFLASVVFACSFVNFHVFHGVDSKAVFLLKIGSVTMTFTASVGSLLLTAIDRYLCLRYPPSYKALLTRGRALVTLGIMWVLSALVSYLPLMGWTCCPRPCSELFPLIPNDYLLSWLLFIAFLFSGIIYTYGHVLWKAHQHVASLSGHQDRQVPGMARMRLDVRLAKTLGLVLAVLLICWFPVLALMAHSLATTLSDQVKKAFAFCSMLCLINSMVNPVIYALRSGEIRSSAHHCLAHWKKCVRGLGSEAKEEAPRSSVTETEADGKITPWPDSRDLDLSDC
Procedure: as §1
Supplementary Experimental Methods […]
as §2
membranes from cells overexpressing human CB2R ( Char les River CAT # A618) w e r e employed for CB2R evaluation. […]
as §3, §4, §5
MgCl 2. The tissue was homogenized using a glass -Teflon and Hei-T ORQUE 200 homogenizer (Heidolph; Cat#17- 012- 002- 25 -1) set to 132 rpm. The resulting suspen sion underwent centrifugation at 48,000 × g for 20 min at four °C, and the supernatant was discarded. The pellet obtained was homogenized again and subjected to a second centrifugation under the same conditions. Subsequently, the resulting pellet […]
mM EGTA, 9 mM MgCl 2, and 150 mM NaCl, followed by homogenization. The protein concentration of the suspension was determined using the BCA assay, and the suspen sion was diluted to a final concentration of 2 mg/mL in assay buffer. The prepared suspension was aliquoted on ice and stored at - 80 °C for further use.

[4] = system: HepG2 cells; assay: Cell viability assay (CellTiter Glo); type: cell-based; conditions: 72 h; for IC50: Homo sapiens
Procedure: Cell viability assay. To assess the cell viability, which indicates the toxicity of the novel compounds, a total of 3,000 HepG2 cells were seeded into a 384-well plate. The compounds were then dispensed onto the cell plate using a Tecan D300e digital dispenser. Following compound addition, 35 μL CellTiter Glo reagent was added to all wells of the assay plate, and the plate was mixed for 30 sec on an or bital shaker to lyse cells. Subsequently, the plate was incubated at room temperature for 10 minutes. The luminescence signal was measured using a 384-well plate reader (EnVision). The obtained data were analyzed using XL-fit software (ID Business Solutions Ltd., Software version: XL fit 5. 5. 0. 5). The percentage of inhibition was calculated using the […]
Inhibition (%) = (1-Sample / ZPE) ×100
Sample represents the test compound's luminesc e nce signal, and ZPE represents the luminescence signal f r om the zer o-percent enzyme control.

[5] = in vitro; conditions: mouse
Procedure: (§6) Protein binding of test compound in mouse brain using equilibrium dialysis […]
(§7) method. Solution A (0. 5 mM) was prepared by mixing 10 µL of a 10 mM stock solution […]
(§8) with 190 µL of DMSO. Subsequently, Solution B (0.02 mM) was prepared by adding […]
(§9) 8 µL of solution A to 192 µL of 0.05 M sodium phosphate buffer. The final concentration of DMSO in Solution B was 4%.
(§10) A 96-well plate was initially prepared by dispensing 380 µL aliquots of brain […]
(§11) tissue into wells designated for the brain while t h e buffer was added to the remaining […]
(§12) wells to serve as a control. Subsequently, 20 µL of Solution B (containing 0.02 mM of […]
(§13) test and reference compounds) was spiked into the pre-loaded brain samples in the […]
(§14) plate. This step yielded a final test concentration of 1 µM, containing 0.2% DMSO. A duplicate system was establi shed for the dialysis sampl es wherein brain tissu e was prepared against buffer. Initially, 100 µL aliquots of blank dialysis buffer were applied to the receiver side of the dialysis chambers. Subsequently, 100 µL aliquots of the brain […]
(§15) tissue spiked with te st and reference compounds were applied to the donor side of the […]
(§16) T0 brain samples for initial concentrations were prepared in duplicate. A 25µL […]
(§17) aliquot of the brain spiked with test and reference compounds was transferred into a 96- […]
(§18) well sample preparation plate. An equivalent volume of blank buffer was then added […]
(§19) to each well. Af ter the 5-hour incubation period, aliquots of 25 µL wer e taken f r om t h e […]
(§20) dialysis apparatus's donor and receiver sides and transferred into new sample […]
(§21) preparation plates. An equal volume of the opposite matrix (blank buffer to brain and […]
(§22) vice versa) was added to each well, resulting in a final volume of 50 µL in each well.
(§23) The samples (both T0 and f i v e h) were then quenched with 200 µL of acetonitrile […]
(§24) containing internal standard (IS) and vortexed at 600 rpm for 10 minutes. After […]
(§25) vortexing, the samples were centrifuged at 5594 × g for 15 minutes. Subsequently, 50 […]
(§26) µL of the supernatants were transferred to a new 96-well plate and mixed with 50 µL […]
(§27) of Milli- Q water. T he sample plates wer e cover ed and stor ed in a f r eezer ( -20 ℃) until […]
(§28) respectively. For data analysis, the following equations wer e used:
(§29) % Bound = 100 × ([Donor]5h -[ Receiver] 5h) / [Donor] 5h
(§30) % Recovery= 100 × ([Donor]5h +[Receiver] 5h) / [Initial] 0h
(§31) Undiluted Fu (%) = (1/D) / [(1/Fu2-1 ) + 1/ D ]
(§32) Whereas; D: Dilution factor = Dilution factor of brain: 4

[6] = system: mouse brain tissue; assay: in vitro; conditions: mouse, 5 h, 1 µM
Procedure: as §6, §7, §8, §9, §10, §11, §12, §13, §14, §15, §16, §17, §18, §19, §20, §21, §22, §23, §24, §25, §26, §27, §28, §29, §30, §31, §32

Row | Ki [1] [nM] | IC50 [2] [nM] | Ki [3] [nM] | Ki ([2]; [3H]CP-55,940 displacement, human CB1R membranes, read-out: CB1R hKi) [nM] | IC50 ([4]; read-out: cell viability Absolute IC50) [nM] | IC50 ([4]; read-out: cell viability relative IC50) [nM] | fraction unbound at 5 h, 1 µM [5] | fraction unbound at 5 h, 1 µM ([5]; tissue homogenate) | Fraction of bound (%) [6] [%] | Undiluted Bound (%) [6] [%] | SMILES | Bottom (%) of cell viability inhibition curve [4] [%] | Slope of cell viability inhibition curve [4] | Top (%) of cell viability inhibition curve [4] [%]
1 | 33.8 | 8.5 | > 9000 |  |  |  |  |  |  |  | CS(=O)(=O)NC1CCCOc2c1nn(-c1ccccc1Cl)c2-c1ccc(Cl)cc1 (stereo not shown) [BNS809, N-[2-(2-Chlorophenyl)-3-(4-chlorophenyl)-5,6,7,8-tetrahydrooxepino[3,2-c]pyrazol-8-yl]methanesulfonamide] |  |  | 
2 | 1.6 | 3.8 | 127 | 3.1 | > 100000 | > 100000 |  |  |  |  | O=C(NC1CCCOc2c1nn(-c1ccccc1Cl)c2-c1ccc(Cl)cc1)C1CCN(S(=O)(=O)c2ccc(Cl)cc2)CC1 (stereo not shown) [BNS825, N-[2-(2-Chlorophenyl)-3-(4-chlorophenyl)-5,6,7,8-tetrahydrooxepino[3,2-c]pyrazol-8-yl]-1-(4-chlorophenyl)sulfonyl-piperidine-4-carboxamide] | -11.62 | -0.21 | 6.27
3 |  |  |  |  |  |  | 0.277 | 0.605 | 39.5 | 72.3 | CC(=O)CC(c1ccccc1)c1c(O)c2ccccc2oc1=O (stereo not shown) [Warfarin, reference compound] |  |  | 
